US20250388605A1, “HETEROBIFUNCTIONAL COMPOUNDS AND METHODS OF TREATING DISEASE” (Halda Therapeutics OpCo, Inc., priority 2022, published 2025)

Key:
BRD4-BD1 = target: T1, BRD4-BD1 (Homo sapiens, UniProt O60885); assay: Binding affinity to BRD4-BD1 (bromoKdELECT assay); conditions: 11-point 3-fold dilution series
T1 construct: made in house; host or cells: T7 phage grown in an E. coli host derived from the BL21 strain
Description: Compounds were tested using a bromoKdELECT assay. T7 phage strains displaying bromodomains were grown in parallel in 24-well blocks in an E. coli host derived from the BL21 strain. E. coli were grown to log-phase and infected with T7 phage from a frozen stock (multiplicity of infection=0.4) and incubated with shaking at 32° C. until lysis (90-150 minutes). The lysates were centrifuged (5,000×g) and filtered ([…]) to remove cell debris. Streptavidin-coated magnetic beads were treated with biotinylated small molecule or acetylated peptide ligands for 30 minutes at room temperature to generate affinity resins for bromodomain assays. The liganded beads were blocked with excess biotin and washed with blocking buffer (SeaBlock (Pierce), 1% BSA, 0.05% Tween 20, 1 mM DTT) to remove unbound ligand and to reduce nonspecific phage binding. Binding reactions were assembled by combining bromodomains, liganded affinity beads, and test compounds in 1× binding buffer (17% SeaBlock, 0.33×PBS, 0.04% Tween 20, 0.02% BSA, 0.004% Sodium azide, 7.4 mM DTT). Test compounds were prepared as 1000× stocks in 100% DMSO. Kds were determined using an 11-point 3-fold compound dilution series with one DMSO control point. All compounds for Kd measurements are distributed by acoustic transfer (non-contact dispensing) in 100% DMSO. The compounds were then diluted directly into the assays such that the final concentration of DMSO was 0.09%. All reactions performed in polypropylene 384-well plates. Each was a final volume of 0.02 ml. The assay plates were incubated at room temperature with shaking for 1 hour and the affinity beads were washed with wash buffer (1×PBS, 0.05% Tween 20). The beads were then resuspended in elution buffer (1×PBS, 0.05% Tween […] non-biotinylated affinity ligand) and incubated at room temperature with shaking for 30 minutes. The bromodomain concentration in the eluates was measured by qPCR.

T47D cells = assay: Cellular Growth Inhibition Assay for T47D Cells (CellTiter-Glo); type: cell-based, human; conditions: 72 hours
Method in brief: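 GI50 values derive from four-parameter regression of CellTiter-Glo 2.0 luminescence, using zero luminescence as baseline. Human breast cancer T47D cells (3000/well; DMEM, 10% FBS, 0.2 units/mL insulin) were exposed for 72 h to compound dilutions at 0.5% DMSO, with dosing starting 24 h after seeding.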

| Structure (SMILES) | Kd (BRD4-BD1) [nM] | GI50 (T47D cells; Homo sapiens) [nM] | GI50 (T47D cells) [nM] |
| --- | --- | --- | --- |
| CCS(=O)(=O)Nc1ccc(Oc2cccc(OCCOCCOCCOCCOCCOC3CCN(c4ncc(C(=O)N[C@H]5C(C)(C)[C@H](Oc6ccc(C#N)c(Cl)c6)C5(C)C)cn4)CC3)c2)c(-c2cn(C)c(=O)c3[nH]ccc23)c1 [Compound I-8] | 50 to 500 |  |  |
| CCS(=O)(=O)Nc1ccc(Oc2cccc(OCCOC3CCN(c4ncc(C(=O)N[C@H]5C(C)(C)[C@H](Oc6ccc(C#N)c(Cl)c6)C5(C)C)cn4)CC3)n2)c(-c2cn(C)c(=O)c3[nH]ccc23)c1 [Compound I-47, N-((1r, 3r)-3-(3-chloro-4-cyanophenoxy)-2,2,4,4-tetra-methylcyclobutyl)-2-(4-(2-((6-(4-(ethylsulfonamido)-2-(6-methyl-7-oxo-6,7-dihydro-1H-pyrrolo[2,3-c]pyridin-4-yl)phenoxy)pyridin-2-yl)oxy)ethoxy)piperidin-1-yl)pyrimidine-5-carboxamide] | > 2500 |  |  |
| CCS(=O)(=O)Cc1ccc(Oc2cccc(OCCOC3CCN(c4ncc(C(=O)N[C@H]5C(C)(C)[C@H](Oc6ccc(C#N)c(Cl)c6)C5(C)C)cn4)CC3)c2)c(-c2cn(C)c(=O)c3[nH]ccc23)c1 [Compound I-54, N-((1r, 3r)-3-(3-chloro-4-cyanophenoxy)-2,2,4,4-tetramethylcyclobutyl)-2-(4-(2-(3-(4-((ethylsulfonyl)methyl)-2-(6-methyl-7-oxo-6,7-dihydro-1H-pyrrolo[2,3-c]pyridin-4-yl)phenoxy)phenoxy)ethoxy)piperidin-1-yl)pyrimidine-5-carboxamide] | > 2500 | < 500 |  |
| Cn1cc(-c2ccccc2Oc2cccc(OCCOC3CCN(c4ncc(C(=O)N[C@H]5C(C)(C)[C@H](Oc6ccc(C#N)c(Cl)c6)C5(C)C)cn4)CC3)c2)c2cc[nH]c2c1=O [Compound I-61, N-((1r, 3r)-3-(3-chloro-4-cyanophenoxy)-2,2,4,4-tetramethylcyclobutyl)-2-(4-(2-(3-(2-(6-methyl-7-oxo-6,7-dihydro-1H-pyrrolo[2,3-c]pyridin-4-yl)phenoxy)phenoxy)ethoxy)piperidin-1-yl)pyrimidine-5-carboxamide] | > 2500 | < 500 |  |
| CCS(=O)(=O)Nc1ccc(Oc2cccc(N3CC(OC4CCN(c5ncc(C(=O)N[C@H]6C(C)(C)[C@H](Oc7ccc(C#N)c(Cl)c7)C6(C)C)cn5)CC4)C3)c2)c(-c2cn(C)c(=O)c3[nH]ccc23)c1 [Compound I-80] | 50 to 500 | < 500 |  |
| CCS(=O)(=O)Nc1ccc(Oc2cccc(NCCOC3CCN(c4ncc(C(=O)N[C@H]5C(C)(C)[C@H](Oc6ccc(C#N)c(Cl)c6)C5(C)C)cn4)CC3)c2)c(-c2cn(C)c(=O)c3[nH]ccc23)c1 [Compound I-84] | < 50 | < 500 |  |
| CN(c1ccc(Oc2cccc(N3CC(N4CCN(c5ncc(C(=O)N[C@H]6C(C)(C)[C@H](Oc7ccc(C#N)c(Cl)c7)C6(C)C)cn5)CC4)C3)c2)c(-c2cn(C)c(=O)c3[nH]ccc23)c1)S(=O)(=O)C1CC1 [Compound I-88, N-((1r, 3r)-3-(3-chloro-4-cyanophenoxy)-2,2,4,4-tetramethylcyclobutyl)-2-(4-(1-(3-(2-(6-methyl-7-oxo-6,7-dihydro-1H-pyrrolo[2,3-c]pyridin-4-yl)-4-(N-methylcyclopropanesulfonamido)phenoxy)phenyl)azetidin-3-yl)piperazin-1-yl)pyrimidine-5-carboxamide] | 500 to 2500 | 500 to 1500 |  |
| Cn1cc(-c2cc(N)ccc2Oc2cccc(OCCN3CCN(c4ncc(C(=O)N[C@H]5C(C)(C)[C@H](Oc6ccc(C#N)c(Cl)c6)C5(C)C)cn4)CC3)c2F)c2cc[nH]c2c1=O [Compound I-100] |  | 1500 to 3000 |  |
| Cn1cc(-c2cc(N)ccc2Oc2cccc(OCCC3CCN(c4ncc(C(=O)N[C@H]5C(C)(C)[C@H](Oc6ccc(C#N)c(Cl)c6)C5(C)C)cn4)CC3)c2)c2cc[nH]c2c1=O [Compound I-101] |  | 500 to 1500 |  |
| CCS(=O)(=O)N(C)c1ccc(Oc2cccc(N3CCN(C4CN(c5ncc(C(=O)N[C@H]6C(C)(C)[C@H](Oc7ccc(C#N)c(Cl)c7)C6(C)C)cn5)C4)CC3)c2)c(-c2cn(C)c(=O)c3[nH]ccc23)c1 [Compound I-118] |  | < 500 |  |
| CCS(=O)(=O)Nc1ccc(Oc2cccc(CCN3CC4CN(c5ncc(C(=O)N[C@H]6C(C)(C)[C@H](Oc7ccc(C#N)c(Cl)c7)C6(C)C)cn5)CC4C3)c2)c(-c2cn(C)c(=O)c3[nH]ccc23)c1 (some centres unmarked) [Compound I-119] |  | < 500 |  |
| CCS(=O)(=O)Nc1ccc(Oc2cccc(N3CC(N(C)C4CN(c5ncc(C(=O)N[C@H]6C(C)(C)[C@H](Oc7ccc(C#N)c(Cl)c7)C6(C)C)cn5)C4)C3)c2)c(-c2cn(C)c(=O)c3[nH]ccc23)c1 [Compound I-120] |  | < 500 |  |
| CCS(=O)(=O)Nc1ccc(Oc2cccc(N3CC(CC4CN(c5ncc(C(=O)N[C@H]6C(C)(C)[C@H](Oc7ccc(C#N)c(Cl)c7)C6(C)C)cn5)C4)C3)c2)c(-c2cn(C)c(=O)c3[nH]ccc23)c1 [Compound I-158] |  |  | < 500 |
| CCS(=O)(=O)c1ccc(Oc2cccc(OCCN3CCN(c4ncc5c(n4)CN([C@H]4C(C)(C)[C@H](Oc6ccc(C#N)c(Cl)c6)C4(C)C)C5=O)CC3)c2F)c(-c2cn(C)c(=O)c3[nH]ccc23)c1 [Compound I-217] |  |  | < 500 |

Next, values leading:

| Kd (BRD4-BD1) [nM] | GI50 (T47D cells; Homo sapiens) [nM] | GI50 (T47D cells) [nM] | Structure (SMILES) |
| --- | --- | --- | --- |
| 50 to 500 |  |  | CCS(=O)(=O)Nc1ccc(Oc2cccc(OCCOC3CCN(c4ccc(C(=O)N[C@H]5C(C)(C)[C@H](Oc6ccc(C#N)c(Cl)c6)C5(C)C)nn4)CC3)c2)c(-c2cn(C)c(=O)c3[nH]ccc23)c1 [Compound I-11] |
| 500 to 2500 |  |  | CCS(=O)(=O)Nc1ccc(Oc2cccc(OCCOCCOC3CCN(c4ncc(C(=O)N[C@H]5C(C)(C)[C@H](Oc6ccc(C#N)c(Cl)c6)C5(C)C)cn4)CC3)c2)c(-c2cn(C)c(=O)c3[nH]ccc23)c1 [Compound I-13] |
| < 50 |  |  | CCS(=O)(=O)Nc1ccc(Oc2cccc(N(C)C3CN(CC4CCN(c5ncc(C(=O)NC6C(C)(C)C(Oc7ccc(C#N)c(Cl)c7)C6(C)C)cn5)CC4)C3)c2)c(-c2cn(C)c(=O)c3[nH]ccc23)c1 (centres unmarked) [Compound I-39] |
| 500 to 2500 | < 500 |  | Cn1cc(-c2cc(C(C)(C)O)ccc2Oc2cccc(OCCOC3CCN(c4ncc(C(=O)N[C@H]5C(C)(C)[C@H](Oc6ccc(C#N)c(Cl)c6)C5(C)C)cn4)CC3)c2)c2cc[nH]c2c1=O [Compound I-56, N-((1r, 3r)-3-(3-chloro-4-cyanophenoxy)-2,2,4,4-tetramethylcyclobutyl)-2-(4-(2-(3-(4-(2-hydroxypropan-2-yl)-2-(6-methyl-7-oxo-6,7-dihydro-1H-pyrrolo[2,3-c]pyridin-4-yl)phenoxy)phenoxy)ethoxy)piperidin-1-yl)pyrimidine-5-carboxamide] |
| > 2500 | 500 to 1500 |  | Cn1cc(-c2cc(N)ccc2Oc2cccc(OCCOC3CCN(c4ncc(C(=O)N[C@H]5C(C)(C)[C@H](Oc6ccc(C#N)c(Cl)c6)C5(C)C)cn4)CC3)c2)c2cc[nH]c2c1=O [Compound I-62, 2-(4-(2-(3-(4-amino-2-(6-methyl-7-oxo-6,7-dihydro-1H-pyrrolo[2,3-c]pyridin-4-yl)phenoxy)phenoxy)ethoxy)piperidin-1-yl)-N-((1r, 3r)-3-(3-chloro-4-cyanophenoxy)-2,2,4,4-tetramethylcyclobutyl)pyrimidine-5-carboxamide] |
| 50 to 500 | < 500 |  | CCS(=O)(=O)Nc1ccc(Oc2cccc(N3CC(N4CCN(c5ncc(C(=O)N[C@H]6C(C)(C)[C@H](Oc7ccc(C#N)c(Cl)c7)C6(C)C)cn5)CC4)C3)c2)c(-c2cn(C)c(=O)c3[nH]ccc23)c1 [Compound I-75] |
|  | 500 to 1500 |  | Cn1cc(-c2cc(N)ccc2Oc2cccc(N3CC(N4CCN(c5ncc(C(=O)N[C@H]6C(C)(C)[C@H](Oc7ccc(C#N)c(Cl)c7)C6(C)C)cn5)CC4)C3)c2F)c2cc[nH]c2c1=O [Compound I-93] |
| 50 to 500 |  |  | CCS(=O)(=O)c1ccc(Oc2cccc(OCCOC3CCN(c4ccc(C(=O)N[C@H]5C(C)(C)[C@H](Oc6ccc(C#N)c(Cl)c6)C5(C)C)cn4)CC3)c2F)c(-c2cn(C)c(=O)c3[nH]ccc23)c1 [Compound I-185] |
|  |  | 500 to 1500 | Cn1cc(-c2cc(C(C)(C)O)ccc2Oc2ccc(N3CC4(C3)CN(c3ncc(C(=O)N[C@H]5C(C)(C)[C@H](Oc6ccc(C#N)c(Cl)c6)C5(C)C)cn3)CCO4)cc2)c2cc[nH]c2c1=O [Compound I-212] |
|  | < 500 |  | Cn1cc(-c2cc(C(C)(C)O)ccc2Oc2cccc(N3CC4(CN(c5ncc(C(=O)N[C@H]6C(C)(C)[C@H](Oc7ccc(C#N)c(Cl)c7)C6(C)C)cn5)CCO4)C3)c2F)c2cc[nH]c2c1=O [Compound I-216] |
